Test results reported in the METLIN SMRT retention time set (Domingo-Almenara et al. 2019).

Assay: gradient 5% acetonitrile 3 min, to 50% in 2 min, to 85% in 15 min, held 3 min, 100 µL/min
Conditions: column: Zorbax Extend-C18 2.1 x 50 mm; eluents: water / acetonitrile, 0.1% formic acid
Procedure, shortened: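 A Zorbax Extend-C18 column (2.1 × 50 mm, 1.8 μm) run at 100 μL/min with water and acetonitrile, both containing 0.1% formic acid, separated mixtures of ~100 pure standards. The HPLC was coupled to a quadrupole time-of-flight mass spectrometer operated in positive and negative ionization mode, with dead and dwell volumes of 40 μL and 900 μL. Each retention time was taken from a computationally picked adduct peak that was then manually inspected.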

Row | Structure (SMILES) | RP-LC retention time
1 | Cc1nnc2cc(N3CCN(C(=O)Nc4cccc(Cl)c4)CC3)cnn12 | 596 s
2 | CCCNC(=O)c1cc(C)nc2ccc(F)cc12 | 646 s
3 | Cc1ccc(-n2ccc(=O)c(-c3nc(-c4ccc(Cl)cc4)no3)n2)cc1 | 1030 s
4 | Cc1nc(-c2cc(S(=O)(=O)NCc3ccc(F)cc3F)c(C)s2)cs1 | 956 s
5 | Cc1ccccc1-n1c(SCc2nc(-c3ccccc3)no2)nc2cc3c(cc2c1=O)OCO3 | 1190 s
6 | Cc1cc2oc3c(c(=O)c2cc1C)C(c1ccccc1F)N(c1nccs1)C3=O (configuration not stated) | 1050 s
7 | Cc1ccccc1C(=O)Nc1ccc2c(c1)Sc1ncccc1C(=O)N2C(C)C | 872 s
8 | CC(C)CNC(=O)N1CCC(CCOc2cccnc2)CC1 | 605 s
9 | O=C(C1COc2ccccc2O1)N1CC(n2ccnc2)C1 (configuration not stated) | 594 s
10 | CC1CCN(S(=O)(=O)N2CCCC(C(=O)NCCCN3CCc4ccccc4C3)C2)CC1 (configuration not stated) | 714 s
11 | Cc1ccc(N2CC(c3noc(-c4cc(C)cc(C)c4)n3)CC2=O)cc1 (configuration not stated) | 1200 s
12 | CCN(Cc1ccccc1)C(=O)CN1C(=O)C(O)(c2cccc(F)c2)c2ccccc21 (configuration not stated) | 655 s
13 | COc1cc(C2CC(=O)c3c([nH]c(C(=O)OCC4CCCCC4)c3C)C2)cc(OC)c1OC (configuration not stated) | 1180 s
14 | O=C(Nc1ccc2c(c1)OCO2)c1coc(NC(=O)c2ccco2)n1 | 651 s
15 | CCC1=NS(=O)(=O)c2cccnc2N1c1ccc(Br)cc1 | 903 s
16 | COc1ccccc1NC(=O)[C@H]1[C@H]2C=C[C@]3(CN(Cc4cccnc4)C(=O)[C@@H]13)O2 | 597 s
17 | Cc1ccc(CS(=O)(=O)N2CCC(C3CCNC3)CC2)cc1 (configuration not stated) | 588 s
18 | Cc1oc(C2CCN(S(=O)(=O)c3ccc(F)c(F)c3)CC2)nc1C(=O)N1CCCC1 | 936 s
19 | O=C(Nc1ccc(Cl)cc1F)N1CCCN(C2CCN(CC3CC3)C2=O)CC1 (configuration not stated) | 575 s
20 | CN(C)C[C@@H]1CN(S(C)(=O)=O)C[C@H]1NC(=O)CC1=CCCCC1 | 602 s

Row | Structure (SMILES) | RP-LC retention time
21 | O=C(NCc1ccncc1)C1CN(S(=O)(=O)C2CC2)CC12CCCCC2 (configuration not stated) | 598 s
22 | CCS(=O)(=O)Nc1ccc(C2(C(=O)NC(C)c3ccccc3)CCCCC2)cc1 (configuration not stated) | 976 s
23 | O=C(O)CCC1CCCN(S(=O)(=O)c2ccc(F)cc2)C1 (configuration not stated) | 782 s
24 | O=C1OC2CC1N(C(=O)Cn1c(=O)oc3ccccc31)C2 (configuration not stated) | 618 s
25 | Cc1nc([N+](=O)[O-])c(Sc2nc3ccccc3[nH]2)n1Cc1ccccc1 | 702 s
26 | CCC(C)Nc1nc2c(c(=O)n(C)c(=O)n2C)n1CC(O)COc1ccccc1 (configuration not stated) | 865 s
27 | CC(C(=O)NCCCN1CCOCC1)n1c(=O)c(C(F)(F)F)nc2ccccc21 (configuration not stated) | 644 s
28 | CN(CCNC(=O)c1cc(=O)n(C)c2c1c(=O)n(C)c(=O)n2C)C1CCCCC1 | 624 s
29 | COc1nn(C)cc1C(=O)Nc1nnc(C)s1 | 583 s
30 | COC(=O)N[C@@H](C)CNc1nccc(-c2cn(C(C)C)nc2-c2cc(Cl)cc(NS(C)(=O)=O)c2F)n1 | 792 s
31 | Cn1cnc2c(C(=O)NC3CCCCC3)nn(-c3ccccc3)c2c1=O | 855 s
32 | CCn1ncc(Cl)c1C(=O)N1CCCC1c1ccc(F)cc1 (configuration not stated) | 912 s
33 | CC1=C(c2ccc(C)c(C)c2)S(=O)(=O)N=C1N1CCCN(C(=O)C(C)(C)C)CC1 | 903 s
34 | CC(C)NC(=O)c1nc(-c2ccnc(N3CCCCC3)c2)no1 | 671 s
35 | Cc1nn(-c2nc(-c3ccc(F)cc3)cs2)c(C)c1CC(=O)Nc1ccccc1F | 1140 s
36 | Cc1csc(-c2ccc(N3CCN(C(=O)c4ccco4)CC3)nc2)n1 | 711 s
37 | O=C(Cc1ccsc1)N1CCCC1(CO)Cc1ccccc1 (configuration not stated) | 805 s
38 | CCOC(=O)c1cn[nH]c1S(=O)(=O)Nc1ccc2c(c1)OCCO2 | 683 s
39 | Cc1cc(C)cc(NS(=O)(=O)c2ccc(-c3c(C)noc3C)cc2)c1 | 989 s
40 | O=C(NC1CC1)[C@@H]1C[C@H](Oc2ccccc2)CN1C(=O)C1CC=CC1 | 755 s

Further lines, results first:

Row | RP-LC retention time | Structure (SMILES)
41 | 818 s | CCOc1ccc(NS(=O)(=O)c2cc3c4c(c2)CCC(=O)N4CCC3)cc1
42 | 1170 s | CC(=O)Nc1onc(C)c1-c1ccc(C)c(S(=O)(=O)NCc2ccc(N(C)C)cc2)c1
43 | 636 s | COc1cccc(NC(=O)Nc2ccc(CC(N)=O)cc2)c1OC
44 | 641 s | CCc1nc2cc(CNC(=O)Cc3ccc(Cl)cc3)ccc2n1C
45 | 799 s | CCNC(=O)C1CCN(c2nc3ccc(-c4ccsc4)nc3s2)CC1
46 | 651 s | O=C(Cn1cnc2nc(N3CCC(C(=O)NC4CC4)CC3)sc2c1=O)Nc1ccc(F)cc1F
47 | 821 s | CCc1nc(OCC(=O)Nc2cc(OC)ccc2OC)c2ccccc2n1
48 | 763 s | O=C1COc2ccc(S(=O)(=O)N3CCC(C(=O)Nc4ccc(F)cc4F)CC3)cc2N1
49 | 696 s | O=C(NCc1ccccc1)C1CCc2nc(N3CCOCC3)ncc2C1 (configuration not stated)
50 | 680 s | CCN(CC)C(=O)c1cc(NS(=O)(=O)c2ccc(C(C)(C)C)cc2)cnc1N1CCNCC1
51 | 820 s | COc1ccc(-c2nnc(COc3ccc(NC(=O)c4cccnc4Cl)cc3)o2)cc1
52 | 593 s | CSc1nc(N2CCCC2)c2cnn(CCNC(=O)c3ccc(=O)[nH]c3)c2n1
53 | 664 s | Cc1ccc(CNC(=O)CN2C(=O)C3CCCCN3c3ccc(C(=O)N4CCCC4)cc32)o1 (configuration not stated)
54 | 630 s | COc1ccc(Cl)cc1NC(=O)CN1CCCC(COCc2ccccc2)C1 (configuration not stated)
55 | 1230 s | CCc1ccc(NC(=O)C2CCCN(c3nc4ccccc4nc3C(F)(F)F)C2)cc1 (configuration not stated)
56 | 755 s | CC1Oc2ccc(S(=O)(=O)N3CCC(C(=O)NCc4ccc5c(c4)OCO5)CC3)cc2NC1=O (configuration not stated)
57 | 1050 s | O=C(c1cncc(Br)c1)N1CCC(Cc2nc(-c3ccc(Cl)cc3)no2)CC1
58 | 839 s | CCOC(=O)c1ccc2nc(NC(=O)C3CCCCN3S(C)(=O)=O)sc2c1 (configuration not stated)
59 | 724 s | Cc1cc(C(=O)Nc2cccn3c(C4CCC4)nnc23)no1
60 | 680 s | Cc1cc(C(=O)N2CC(C(=O)NCCc3ccc(F)cc3)C2)no1
61 | 760 s | CCCC(=O)Nc1ccc2c(c1)CN(C(=O)c1ccc(C)cc1C)C(C(=O)N(C)C)C2 (configuration not stated)
62 | 759 s | CCCC(=O)Nc1ccc2c(c1)CN(C(=O)c1cccc(Cl)c1)C(C(=O)N(C)C)C2 (configuration not stated)
63 | 588 s | CC1(C(=O)NCc2ccccc2)CCCN(C(=O)Nc2ccc(F)cc2)C1 (configuration not stated)
64 | 714 s | COc1ccc2[nH]cc(CCNC(=O)Cn3nc4c(cc3=O)CCCC4)c2c1

Row | RP-LC retention time | Structure (SMILES)
65 | 1230 s | CCOc1ccc(-c2nc(-c3ccc4c(c3)oc(=O)n4C(C)C)no2)cc1
66 | 818 s | COc1cc(OC)c(NC(=O)Cn2c(N(C)Cc3ccccc3)nc(C)cc2=O)cc1Cl
67 | 854 s | CCn1cc(SCC(=O)NCc2ccc3c(c2)OCO3)c2ccccc21
68 | 851 s | Cn1c(=O)sc2cc(S(=O)(=O)N3CCC(C(=O)NCc4ccccc4)CC3)ccc21
69 | 1020 s | Cc1ccc(Cn2c(N3CCCC(C(=O)NC4CCCCC4)C3)nc3ccsc3c2=O)cc1 (configuration not stated)
70 | 664 s | COc1ccc(S(=O)(=O)C(CNC(=O)c2cccc([N+](=O)[O-])c2C)c2ccco2)cc1 (configuration not stated)
71 | 744 s | COC(=O)c1ccc2c(=O)n(Cc3ccc(OC)cc3)c(N3CCC(C(N)=O)CC3)nc2c1
72 | 709 s | CCn1c(=O)n(CCN2CCOCC2)c(=O)c2cnc(-c3ccc(Cl)cc3)nc21
73 | 899 s | Cc1ccc(CNC(=O)C2(C)CN(S(C)(=O)=O)CC(=O)N2Cc2ccc(C)cc2)cc1 (configuration not stated)
74 | 1260 s | O=C(NCc1ccc(Cl)cc1)c1c(O)c2cccnc2n(-c2ccccc2)c1=O
75 | 765 s | Cn1c(=O)c2cc(C(=O)NCCCc3ccccc3)sc2n(C)c1=O
76 | 886 s | O=C(COc1ccc([N+](=O)[O-])cc1)Nc1ccc(S(=O)(=O)N2CCCCC2)cc1
77 | 1280 s | Cc1ccccc1-c1noc(C2CCCN2S(=O)(=O)c2cccc(Cl)c2C)n1 (configuration not stated)
78 | 661 s | CC(=O)c1ccc(C)cc1OC(=O)c1cccc2nc(C)oc12
79 | 759 s | Cc1ccc(C(=O)CC2(O)C(=O)Nc3ccccc32)c(C)c1 (configuration not stated)
80 | 824 s | COc1ccc(NC(=O)C2CCN(c3nnc(-c4ccc(OC)cc4)o3)CC2)cc1
81 | 766 s | O=C(NCc1csc(-c2ccccc2)n1)C1CCN(C(=O)Nc2ccccc2)CC1
82 | 712 s | Cc1ccc(C)c(CNC(=O)Cn2c(=O)c3nnc(C)n3c3ncccc32)c1
83 | 750 s | Cc1nc(NC(=O)c2ccc(Cl)cc2)nc2cc3c(cc12)OCO3
84 | 912 s | Cc1ccc(-n2c(=O)c3c(cc(C)n3C)n(CC(=O)Nc3c(C)cccc3C)c2=O)cc1
85 | 859 s | COc1ccc(S(=O)(=O)N2CCCC(C(=O)N(C)Cc3ccccc3)C2)cc1OC (configuration not stated)
86 | 632 s | COc1ccc(-c2noc(N3CCC(C(=O)N4CCN(C5CCCCC5)CC4)CC3)n2)cc1OC
87 | 729 s | CCn1nccc1C(=O)NCCn1c(=O)n(Cc2ccc(F)cc2)c2cccnc21
